This is an account of results in patent US20070270434A1, “SULFONYL-SUBSTITUTED BICYCLIC COMPOUNDS AS MODULATORS OF PPAR” (KALYPSYS, INC., priority 2006, published 2007).

Common to all, as to assay type: cell-based, murine and human
Holding throughout (details): 20-24 hours

Experiment [1] has as its target T1, PPAR-delta ligand binding domain fused to GAL4 DNA binding domain (UniProt Q03181).
T1 sequence (Q03181 1-441): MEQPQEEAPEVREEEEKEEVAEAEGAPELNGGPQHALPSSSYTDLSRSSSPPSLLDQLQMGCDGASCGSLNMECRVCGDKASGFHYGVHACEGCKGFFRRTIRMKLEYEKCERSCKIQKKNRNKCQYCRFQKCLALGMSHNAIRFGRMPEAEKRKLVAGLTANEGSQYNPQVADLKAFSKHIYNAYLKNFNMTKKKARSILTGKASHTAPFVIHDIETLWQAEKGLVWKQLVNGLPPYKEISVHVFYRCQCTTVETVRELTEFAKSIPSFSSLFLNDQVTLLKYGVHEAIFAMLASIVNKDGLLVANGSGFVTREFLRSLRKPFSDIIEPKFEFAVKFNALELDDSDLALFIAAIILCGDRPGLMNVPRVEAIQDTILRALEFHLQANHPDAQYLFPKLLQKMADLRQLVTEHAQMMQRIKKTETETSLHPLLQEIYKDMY
Description: Transient transfection transactivation assay in CV-1 cells, PPAR-delta (GAL4 chimera, luciferase reporter). The source says: (§1) Compounds may be screened for functional potency in transient transfection assays in CV-1 cells for their ability to activate the PPAR subtypes (transactivation assay). A previously established chimeric receptor system was utilized to allow comparison of the relative transcriptional activity of the receptor subtypes on the same synthetic response element and to prevent endogenous receptor activation from complicating the interpretation of results. See, for example, Lehmann, J. M.; Moore, L. B.; Smith-Oliver, T. A; Wilkinson, W. O.; Willson, T. M.; Kliewer, S. A., An antidiabetic thiazolidinedione is a high affinity ligand for peroxisome proliferator-activated receptor […], J. Biol. Chem., 1995, 270, 12953-6. The ligand binding domains for murine and human PPAR-alpha, PPAR-gamma, and PPAR-delta are each fused to the yeast transcription factor GAL4 DNA binding domain. CV-1 cells were transiently transfected with expression vectors for the respective PPAR chimera along with a reporter construct containing four or five copies of the GAL4 DNA binding site driving expression of luciferase. After 8-16 h, the cells are replated into multi-well assay plates and the media is exchanged to phenol-red free DME medium supplemented with 5% delipidated calf serum. 4 hours after replating, cells were treated with either compounds or 1% DMSO for 20-24 hours. Luciferase activity was then assayed with Britelite (Perkin Elmer) following the manufacturer's protocol and measured with either the Perkin Elmer Viewlux or Molecular Devices Acquest (see, for example, Kliewer, S. A., et. al. Cell 1995, 83, 813-819). Rosiglitazone is used as a positive control in the PPARγ assay. Wy-14643 and GW7647 are used as positive controls in the PPARα assay. GW501516 is used as the positive control in the PPARδ assay.
(In general: A reporter such as luciferase makes a cellular process visible.)

The target in experiment [2] is T2, PPAR-alpha ligand binding domain fused to GAL4 DNA binding domain (UniProt Q07869).
T2 sequence (Q07869 1-468): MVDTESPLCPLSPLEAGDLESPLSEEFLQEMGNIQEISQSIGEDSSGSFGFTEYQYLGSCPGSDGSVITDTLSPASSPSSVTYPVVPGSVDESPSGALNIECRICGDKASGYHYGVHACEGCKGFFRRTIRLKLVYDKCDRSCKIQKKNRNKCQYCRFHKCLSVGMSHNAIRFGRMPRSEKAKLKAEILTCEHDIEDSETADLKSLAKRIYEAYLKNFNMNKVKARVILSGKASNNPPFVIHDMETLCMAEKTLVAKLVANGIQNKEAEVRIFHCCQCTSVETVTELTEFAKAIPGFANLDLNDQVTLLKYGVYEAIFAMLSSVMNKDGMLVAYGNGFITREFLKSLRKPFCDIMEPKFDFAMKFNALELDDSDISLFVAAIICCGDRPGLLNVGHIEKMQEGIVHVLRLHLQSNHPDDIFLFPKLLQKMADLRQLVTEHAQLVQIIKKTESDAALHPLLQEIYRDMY
Description: Transient transfection transactivation assay in CV-1 cells, PPAR-alpha (GAL4 chimera, luciferase reporter).
Source text: as §1

Experiment [3] concerns the target T3, PPAR-gamma ligand binding domain fused to GAL4 DNA binding domain (UniProt P37231).
T3 sequence (P37231 1-505): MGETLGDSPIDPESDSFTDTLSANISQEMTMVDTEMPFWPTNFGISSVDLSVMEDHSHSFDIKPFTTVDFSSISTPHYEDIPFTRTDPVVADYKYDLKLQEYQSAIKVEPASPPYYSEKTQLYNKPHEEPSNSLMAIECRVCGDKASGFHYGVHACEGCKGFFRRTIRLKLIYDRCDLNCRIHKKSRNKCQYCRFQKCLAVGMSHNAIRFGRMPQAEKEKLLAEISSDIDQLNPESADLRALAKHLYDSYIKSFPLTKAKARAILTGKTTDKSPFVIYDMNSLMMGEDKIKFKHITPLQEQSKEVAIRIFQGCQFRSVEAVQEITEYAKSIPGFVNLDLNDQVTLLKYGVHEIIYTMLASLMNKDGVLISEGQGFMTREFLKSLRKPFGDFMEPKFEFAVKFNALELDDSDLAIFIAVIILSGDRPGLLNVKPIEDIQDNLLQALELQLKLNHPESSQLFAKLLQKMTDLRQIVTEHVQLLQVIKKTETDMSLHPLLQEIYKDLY
As to the kind of experiment: Transient transfection transactivation assay in CV-1 cells, PPAR-gamma (GAL4 chimera, luciferase reporter).
Source text: as §1

Each structure is given as a SMILES string. Bounds are passed on as bounds.

Regarding `O=C(O)C1Cc2cccc(S(=O)(=O)N3CCN(S(=O)(=O)c4ccc(OC(F)(F)F)cc4)CC3)c2C1` (stereo not drawn) [Example 10, 4-(4-(4-(Trifluoromethoxy)phenylsulfonyl)piperazin-1-ylsulfonyl)-2,3-dihydro-1H-indene-2-carboxylic acid], the EC50 is 5 to 100 µM in experiment [1], above 100 µM in experiment [2] and 5 to 100 µM in experiment [3].

Turning to `O=C(O)C1Cc2cccc(S(=O)(=O)N3CCN(CCc4ccc(OC(F)(F)F)cc4)CC3)c2C1` (stereo not drawn) [Example 15, 4-(4-(4-(Trifluoromethoxy)phenethyl)piperazin-1-ylsulfonyl)-2,3-dihydro-1H-indene-2-carboxylic acid], the results for the EC50 in experiment [1], in experiment [2] and in experiment [3] were below 5 µM, 5 to 100 µM and 5 to 100 µM, respectively.

As for `O=C(O)C1Cc2cccc(S(=O)(=O)N3CCN(C(=O)c4ccc(OC(F)(F)F)cc4)CC3)c2C1` (stereo not drawn) [Example 18, 4-(4-(4-(trifluoromethoxy)benzoyl)piperazin-1-ylsulfonyl)-2,3-dihydro-1H-indene-2-carboxylic acid], the EC50 in experiment [1] is 5 to 100 µM; in experiment [2], above 100 µM; in experiment [3], above 100 µM.

For `C[C@@H]1CN(CCc2ccc(SC(F)(F)F)cc2)C[C@H](C)N1S(=O)(=O)c1cccc2c1CC(C(=O)O)C2` (stereo partly drawn) [Example 23, 4-((cis)-2,6-Dimethyl-4-(4-(trifluoromethylthio)phenethyl)piperazin-1-ylsulfonyl)-2,3-dihydro-1H-indene-2-carboxylic acid], the results for the half-maximal effective concentration (EC50) in experiment [1], in experiment [2] and in experiment [3] were below 5 µM, 5 to 100 µM and 5 to 100 µM, respectively.

`C[C@@H]1CN(Cc2ccc(SC(F)(F)F)cc2)C[C@H](C)N1S(=O)(=O)c1cccc2c1CC(C(=O)O)C2` (stereo partly drawn) [Example 6, 4-(cis-2,6-Dimethyl-4-(4-(trifluoromethylthio)benzyl)piperazin-1-ylsulfonyl)-2,3-dihydro-1H-indene-2-carboxylic acid]: the EC50 in experiment [1] is below 5 µM; in experiment [2] it was 5 to 100 µM; in experiment [3], 5 to 100 µM.

On to `O=C(O)C1Cc2cccc(S(=O)(=O)N3CCN(C(=O)CCc4ccc(OC(F)(F)F)cc4)CC3)c2C1` (stereo not drawn) [Example 16, 4-(4-(3-(4-(Trifluoromethoxy)phenyl)propanoyl)piperazin-1-ylsulfonyl)-2,3-dihydro-1H-indene-2-carboxylic acid], for which the EC50 in experiment [1] was 5 to 100 µM; in experiment [2] it was above 100 µM; in experiment [3], above 100 µM.

In the case of `C[C@@H]1CN(S(=O)(=O)c2ccc(OC(F)(F)F)cc2)C[C@H](C)N1S(=O)(=O)c1cccc2c1CC(C(=O)O)C2` (stereo partly drawn) [Example 11, 4-(cis-2,6-Dimethyl-4-(4-(trifluoromethoxy)phenylsulfonyl)piperazin-1-ylsulfonyl)-2,3-dihydro-1H-indene-2-carboxylic acid], the EC50 in experiment [1] was below 5 µM; in experiment [2], above 100 µM; in experiment [3] it was 5 to 100 µM.

In the case of `O=C(O)C1Cc2cccc(S(=O)(=O)N3CCN(C(=O)Cc4ccc(OC(F)(F)F)cc4)CC3)c2C1` (stereo not drawn) [Example 19, 4-(4-(2-(4-(trifluoromethoxy)phenyl)acetyl)piperazin-1-ylsulfonyl)-2,3-dihydro-1H-indene-2-carboxylic acid], the figures for the EC50 in experiment [1], in experiment [2] and in experiment [3] were 5 to 100 µM, above 100 µM and 5 to 100 µM, respectively.

On to `C[C@@H]1CN(C(=O)Cc2ccc(C(F)(F)F)cc2)C[C@H](C)N1S(=O)(=O)c1cccc2c1CC(C(=O)O)C2` (stereo partly drawn) [Example 13, 4-(cis-2,6-Dimethyl-4-(2-(4-(trifluoromethyl)phenyl)acetyl)piperazin-1-ylsulfonyl)-2,3-dihydro-1H-indene-2-carboxylic acid], for which the EC50 is 5 to 100 µM in experiment [1], above 100 µM in experiment [2] and above 100 µM in experiment [3].

On to `C[C@@H]1CN(Cc2ccc(OC(F)(F)F)c(F)c2)C[C@H](C)N1S(=O)(=O)c1cccc2c1CC(C(=O)O)C2` (stereo partly drawn) [Example 5], for which the EC50 in experiment [1] is below 5 µM; in experiment [2], 5 to 100 µM; in experiment [3] it was 5 to 100 µM.

Take `O=C(O)C1Cc2cccc(S(=O)(=O)N3CCN(Cc4cccc(OC(F)(F)F)c4)CC3)c2C1` (stereo not drawn) [Example 2]: the concentration for a half-maximal effect (EC50) was below 5 µM in experiment [1], above 100 µM in experiment [2] and below 5 µM in experiment [3].

As for `C[C@@H]1CN(CCc2ccc(Cl)cc2)C[C@H](C)N1S(=O)(=O)c1cccc2c1CC(C(=O)O)C2` (stereo partly drawn) [Example 24, 4-(4-(4-chlorophenethyl)-(cis)-2,6-dimethylpiperazin-1-ylsulfonyl)-2,3-dihydro-1H-indene-2-carboxylic acid], the results for the EC50 in experiment [1], in experiment [2] and in experiment [3] were below 5 µM, above 100 µM and above 100 µM, respectively.

Broadly, the EC50 is the concentration needed to bring the measured effect to its halfway point. Read a high EC50 as weaker potency.
